The values below come from article PMC3937211, “Serine Carboxypeptidase SCPEP1 and Cathepsin A Play Complementary Roles in Regulation of Vasoconstriction via Inactivation of Endothelin-1” (PLoS Genetics, 2014).

Assay [1] addresses T1, Scpep1 (Mus musculus, UniProt Q920A5).
T1 construct: Scpep1 has a cleavable signal peptide, N-linked glycans, the Ser-Asp-His catalytic triad and is proteolytically processed from a 55 kDa precursor; made in house; host or cells: HT1080 cells (stably transfected), protein purified from the culture medium
T1 sequence (Q920A5 29-452): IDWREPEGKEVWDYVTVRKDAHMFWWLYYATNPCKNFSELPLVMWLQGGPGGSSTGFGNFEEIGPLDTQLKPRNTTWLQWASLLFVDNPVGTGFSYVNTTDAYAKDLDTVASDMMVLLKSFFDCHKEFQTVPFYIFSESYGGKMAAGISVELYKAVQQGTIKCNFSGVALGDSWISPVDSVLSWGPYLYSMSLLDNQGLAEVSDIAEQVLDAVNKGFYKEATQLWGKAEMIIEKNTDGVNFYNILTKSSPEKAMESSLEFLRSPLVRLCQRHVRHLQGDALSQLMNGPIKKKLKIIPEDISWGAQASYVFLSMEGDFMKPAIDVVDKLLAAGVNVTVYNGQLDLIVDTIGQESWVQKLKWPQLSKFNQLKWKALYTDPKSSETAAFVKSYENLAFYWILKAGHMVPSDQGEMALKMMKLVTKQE
Put plainly: Carboxypeptidase activity of purified recombinant Scpep1-His6 against ET-1. The class given is biochemical. The settings on record: pH 6.5 and 7.5, 50 µM ET-1. The text has this: Figure 1 Scpep1 has carboxypeptidase activity against ET-1. A. Carboxypeptidase activity against ET-1 in homogenates of cultured AVSMC from WT, Scpep1 ^−/−, CathA^S190A and Scpep1 ^−/− /CathA^S190A mice as well as from the cells of Scpep1 ^−/− /CathA^S190A mice transiently transfected with pCMV-GFP and pCMV-Scpep1 plasmids. AVSMC after the passage 3 were transfected or not with Scpep1-RGS-His-Tag and pEGFP-C1 plasmids. Forty-eight hours after transfection confluent cells were harvested, homogenized and tested for carboxypeptidase activity using 50 µM ET-1 as a substrate. Data are expressed as means (±S.D.) of 3 independent experiments performed with different cell cultures. * p<0.05 and ** p<0.01 in two-tailed unpaired t-test. B. Carboxypeptidase activity against ET-1 in homogenates of cultured AVSMC from WT mice transfected with Scpep1 and CathA shRNA. […] The amino acid analysis of the reaction mixture determined that Scpep1 cleaves the C-terminal amino acid (Trp21) from ET-1 (not shown). […]
HT1080 cells stably expressing Scpep1-His6 [19] were cultured in DMEM with 0.05% FCS. […] Purity of Scpep1-His6 was monitored by silver staining and Western blotting.
Carboxypeptidase activity in cultured AVSMC was measured against 50 µM ET-1 as previously described using the method measuring the liberation rate of the C-terminal amino acid of the peptide. […]

In assay [2] the test system is mesenteric arteries. Put plainly: Vessel reactivity ex vivo. Also on record: species or system mouse. The conditions noted are these: 10^−11–10^−8 M. The protocol: Vessel reactivity ex vivo was analyzed as described, [40]. Briefly, male mice were sacrificed at five months and their mesenteric arteries were isolated and mounted onto glass capillaries in an artereograph chamber filled with cold oxygenated Krebs solution (118.6 mM NaCl, 4.7 mM KCl, 1.2 mM KH2PO4, 1.2 mM MgSO4, 25.1 mM NaHCO3, 26 µM EDTA, 0.18% glucose, 2.5 mM CaCl2). The arteries were constantly perfused intraluminally with Krebs solution at 30 mmHg. After 45 minutes of equilibration vascular reactivity was measured in response to Norepinephrine (Sigma A-0937, 10^−9–10^−5 M), Acetylcholine (Sigma A-6625, 10^−9–10^−4 M), Sodium Nitroprusside (Calbiochem 56538, 10^−9–10^−4 M), Endothelin-1 (American Peptide Company 88-1-10, 10^−11–10^−8 M) and AI, (American Peptide Company 12-1-10, 10^−8–10^−4 M). Drugs were added extraluminally with a 30 min washout period in between each drug, during which the arteries were able to re-equilibrate to a baseline. To test vasodilatation arteries were pre-contracted with NE to 70% of their equilibration diameter. At least 3 concentration response curves were conducted for each vessel and at least 6 animals were studied for each genotype.

Turning to endothelin-1 [ET-1], the “carboxypeptidase activity against ET-1 compared with pH 5.5” value in assay [1] was “Lower activity”. Moreover, the “vessel reactivity versus WT mice” value in assay [2] (mesenteric arteries of CathA^S190A and Scpep1^−/− mice) is on record as “higher”. Besides, the “vessel reactivity versus all other groups of mice” value in assay [2] (mesenteric arteries of CathA^S190A/Scpep1^−/− mice) is “significantly higher”.
